From PubChem BioAssay (NCI)
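Grown in 96-well plates, cells were treated for 48 hours with each compound at five concentrations. Insufficient inhibition: endpoint recorded as highest concentration tested. TGI denotes the concentration required for complete inhibition of growth.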

Key:
Assay in all cases: NCI anticancer screen, dose series, 48 h
[1] = tested on: HCT-15 colon
[2] = tested on: OVCAR-4 ovarian
[3] = tested on: SNB-75 CNS
[4] = tested on: OVCAR-8 ovarian
[5] = tested on: SF-268 CNS
[6] = tested on: MOLT-4 leukemia
[7] = tested on: HCC-2998 colon
[8] = tested on: HCT-116 colon
[9] = tested on: SK-MEL-5 melanoma
[10] = tested on: ACHN renal
[11] = tested on: HL-60(TB) leukemia
[12] = tested on: UO-31 renal
[13] = tested on: SK-MEL-28 melanoma
[14] = tested on: COLO 205 colon
[15] = tested on: U251 CNS
[16] = tested on: A498 renal
[17] = tested on: DMS 273 small cell lung
[18] = tested on: RPMI-8226 leukemia
[19] = tested on: M14 melanoma
[20] = tested on: EKVX NSCLC
[21] = tested on: MALME-3M melanoma
[22] = tested on: DLD-1 colon
[23] = tested on: SN12C renal
[24] = tested on: SW-620 colon
[25] = tested on: NCI-H23 lung
[26] = tested on: KM20L2 colon
[27] = tested on: K-562 leukemia
[28] = tested on: SNB-19 CNS
[29] = tested on: SF-295 CNS
[30] = tested on: OVCAR-3 ovarian
[31] = tested on: XF 498 CNS
[32] = tested on: IGROV1 ovarian
[33] = tested on: A549 NSCLC
[34] = tested on: 786-0 renal
[35] = tested on: TK-10 renal
[36] = tested on: RXF 393 renal
[37] = tested on: SK-MEL-2 melanoma
[38] = tested on: CAKI-1 renal
[39] = tested on: OVCAR-5 ovarian
[40] = tested on: SF-539 CNS
[41] = tested on: M19-MEL melanoma
[42] = tested on: NCI-H460 lung
[43] = tested on: SR leukemia
[44] = tested on: SK-OV-3 ovarian
[45] = tested on: UACC-257 melanoma
[46] = tested on: HT29 colon
[47] = tested on: SNB-78 CNS
[48] = tested on: LOX IMVI melanoma
[49] = tested on: DMS 114 small cell lung
[50] = tested on: HOP-62 NSCLC
[51] = tested on: CCRF-CEM leukemia
[52] = tested on: HOP-92 NSCLC
[53] = tested on: KM12 colon
[54] = tested on: LXFL 529 NSCLC
[55] = tested on: NCI-H226 lung
[56] = tested on: HOP-18 NSCLC
[57] = tested on: NCI-H522 lung
[58] = tested on: UACC-62 melanoma

N#Cc1c2c(c(Cl)n3c1nc1ccccc13)CCCC2
TGI [1]: 10.6 µM | TGI [2]: 16.7 µM | TGI [3]: 30.9 µM | TGI [4]: 5.89 µM | TGI [5]: 8.83 µM | TGI [6]: 24.8 µM | TGI [7]: 30.8 µM | TGI [8]: 5.43 µM | TGI [9]: 3.26 µM | TGI [10]: 12.4 µM | TGI [11]: 5.25 µM | TGI [12]: 12.8 µM | TGI [13]: 4.43 µM | TGI [14]: 17.7 µM | TGI [15]: 11.8 µM | TGI [16]: 23.8 µM | TGI [17]: 3.74 µM | TGI [18]: 7.52 µM | TGI [19]: 11.3 µM | TGI [20]: 32.1 µM | TGI [21]: 27 µM | TGI [22]: 24.2 µM | TGI [23]: 4.74 µM | TGI [24]: 4.43 µM | TGI [25]: 17 µM | TGI [26]: 7.48 µM | TGI [27]: 7.15 µM | TGI [28]: 14.7 µM | TGI [29]: 16.6 µM | TGI [30]: 20.1 µM | TGI [31]: 5.29 µM | TGI [32]: 8.28 µM | TGI [33]: 17.2 µM | TGI [34]: 3.33 µM | TGI [35]: 6.68 µM | TGI [36]: 0.904 µM | TGI [37]: 8.34 µM | TGI [38]: 11.8 µM | TGI [39]: 32.4 µM | TGI [40]: 14 µM | TGI [41]: 12.2 µM | TGI [42]: 4.02 µM | TGI [43]: > 100 µM | TGI [44]: 10.2 µM | TGI [45]: 3.91 µM | TGI [46]: 2.86 µM | TGI [47]: 15.9 µM | TGI [48]: 4.57 µM | TGI [49]: 5.12 µM

O=Cc1c(O)ccc2ccc(O)c(-c3c(O)ccc4ccc(O)cc34)c12
TGI [1]: > 100 µM | TGI [2]: > 100 µM | TGI [3]: > 100 µM | TGI [4]: > 100 µM | TGI [50]: > 100 µM | TGI [5]: > 100 µM | TGI [51]: > 100 µM | TGI [6]: > 100 µM | TGI [52]: > 100 µM | TGI [8]: > 100 µM | TGI [9]: > 100 µM | TGI [10]: > 100 µM | TGI [11]: > 100 µM | TGI [12]: > 100 µM | TGI [13]: > 100 µM | TGI [14]: > 100 µM | TGI [15]: > 100 µM | TGI [16]: > 100 µM | TGI [17]: > 100 µM | TGI [18]: > 100 µM | TGI [19]: > 100 µM | TGI [21]: > 100 µM | TGI [22]: > 100 µM | TGI [23]: > 100 µM | TGI [53]: > 100 µM | TGI [24]: > 100 µM | TGI [25]: > 100 µM | TGI [26]: > 100 µM | TGI [27]: > 100 µM | TGI [54]: > 100 µM | TGI [55]: 95.1 µM | TGI [29]: > 100 µM | TGI [30]: > 100 µM | TGI [32]: > 100 µM | TGI [33]: > 100 µM | TGI [34]: > 100 µM | TGI [35]: > 100 µM | TGI [36]: > 100 µM | TGI [37]: > 100 µM | TGI [38]: > 100 µM | TGI [39]: > 100 µM | TGI [40]: > 100 µM | TGI [41]: > 100 µM | TGI [42]: > 100 µM | TGI [43]: > 100 µM | TGI [56]: > 100 µM | TGI [44]: > 100 µM | TGI [57]: > 100 µM | TGI [45]: > 100 µM | TGI [46]: > 100 µM | TGI [47]: > 100 µM | TGI [58]: > 100 µM | TGI [48]: > 100 µM | TGI [49]: > 100 µM
